The experiment concerns the target T1, Human M4 (Homo sapiens, UniProt P08173).
T1 construct: expressed in transfected cells
T1 sequence (P08173 1-479): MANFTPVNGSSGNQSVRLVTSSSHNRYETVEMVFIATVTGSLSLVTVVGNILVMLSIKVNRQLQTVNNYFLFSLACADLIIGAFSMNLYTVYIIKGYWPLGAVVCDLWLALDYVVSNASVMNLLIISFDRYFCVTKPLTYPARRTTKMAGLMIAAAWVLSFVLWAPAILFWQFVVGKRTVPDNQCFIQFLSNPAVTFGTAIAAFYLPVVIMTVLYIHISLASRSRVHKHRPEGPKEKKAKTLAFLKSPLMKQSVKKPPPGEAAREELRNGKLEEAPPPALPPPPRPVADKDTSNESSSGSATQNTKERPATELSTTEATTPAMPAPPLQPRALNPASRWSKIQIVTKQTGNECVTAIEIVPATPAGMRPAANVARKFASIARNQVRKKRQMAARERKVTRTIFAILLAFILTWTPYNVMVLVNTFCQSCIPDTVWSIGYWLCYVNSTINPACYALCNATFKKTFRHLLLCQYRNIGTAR
Kind of experiment: mAChR M4 cell-based functional assay (calcium flux, decrease of EC80 acetylcholine response). The following applies: M4/Gqi5/CHO-K1 cells; for remaining activity at 30 µM: % ACh maximum at 30 μM, read-out: Emin (% ACh maximum at 30 μM); for IC50: decrease of response to EC80 acetylcholine. The method, then:
Human M4 cDNA, along with the chimeric G protein Gqi5, were transfected into Chinese hamster ovary (CHO-K1) cells purchased from the American Type Culture Collection using Lipofectamine2000. M4/Gqi5/CHO cells were grown in Ham's F-12 medium containing 10% heat-inactivated fetal bovine serum (FBS), 20 mM HEPES, 500 μg/mL G418 sulfate, and 200 μg/mL Hygromycin B.
For high throughput measurement of agonist-evoked increases in intracellular calcium, CHO-K1 cells stably expressing muscarinic receptors were plated in growth medium lacking G418 and hygromycin at 15,000 cells/20 μL/well in Greiner 384-well black-walled, tissue culture (TC)-treated, clear-bottom plates (VWR). Cells were incubated overnight at 37° C. and 5% CO2. The next day, cells were washed using an ELX 405 (BioTek) with assay buffer; the final volume was then aspirated to 20 μL. Next, 20 μL of a 2.3 μM stock of Fluo-4/acetoxymethyl ester (Invitrogen, Carlsbad, Calif.), prepared as a 2.3 mM stock in DMSO and mixed in a 1:1 ratio with 10% (w/v) Pluronic F-127 and diluted in assay buffer, was added to the wells and the cell plates were incubated for 50 min at 37° C. and 5% CO2. Dye was removed by washing with the ELX 405 and the final volume was aspirated to 20 μL. Compound master plates were formatted in a 10 point concentration-response curve (CRC) format (1:3 dilutions) in 100% DMSO with a starting concentration of 10 or 1 mM using a BRAVO liquid handler (Agilent). Test compound CRCs were then transferred to daughter plates (240 nL) using the Echo acoustic plate reformatter (Labcyte, Sunnyvale, Calif.) and then diluted into assay buffer (40 μL) to a 2× stock using a Thermo Fisher Combi (Thermo Fisher Scientific, Waltham, Mass.).
Calcium flux was measured using the Functional Drug Screening System (FDSS) 6000 or 7000 (Hamamatsu Corporation, Tokyo, Japan) as an increase in the fluorescent static ratio. Compounds were applied to cells (20 μL, 2×) using the automated system of the FDSS at 2 seconds into the protocol and the data were collected at 1 Hz. At 143 s, 10 μL of an EC20 concentration of the muscarinic receptor agonist acetylcholine was added (5×), followed by the addition of 12 μL of an EC80 concentration of acetylcholine at the 268 s time point (5×). Agonist activity was analyzed as a concentration-dependent increase in calcium mobilization upon compound addition. Positive allosteric modulator activity was analyzed as a concentration-dependent increase in the EC20 acetylcholine response. Antagonist activity was analyzed as a concentration-dependent decrease in the EC80 acetylcholine response; for the purposes of the tables herein, an IC50 (inhibitory concentration 50) was calculated as a concentration-dependent decrease of the response elicited by an EC80 concentration of acetylcholine. Concentration-response curves were generated using a four-parameter logistical equation in XLFit curve fitting software (HMS, Bridgewater, N.J.) for Excel (Microsoft, Redmond, Wash.) or Prism (GraphPad Software, Inc., San Diego, Calif.) or the Dotmatics software platform (Dotmatics, Bishop's Stortford, UK).
Compounds were synthesized as described above. Activity (IC50 and Emin) was determined in the inAChR M4 cell-based functional assay as described above and the data are shown in Table 2. The compound numbers correspond to the compound numbers used in Examples 1 and 2 and Tables 1 and 2.

The text below walks through data of patent US11414406B2, “Antagonists of the muscarinic acetylcholine receptor M4” (Vanderbilt University, priority 2018, dated 2022).

Take `FC(F)(F)c1ccc(-c2ccc(N[C@H]3[C@@H]4CN(CC5CCOCC5)C[C@@H]43)nn2)cn1` [Compound 20, (1R,5S,6s)-3-(tetrahydropyran-4-ylmethyl)-N-[6-[6-(trifluoromethyl)-3-pyridyl]pyridazin-3-yl]-3-azabicyclo[3.1.0]hexan-6-amine]: the remaining activity at 30 µM worked out at 48%.
Regarding `c1cc(C2CC2)ncc1-c1ccc(N[C@H]2[C@@H]3CN(CC4CCOCC4)C[C@@H]32)nn1` [Compound 21, (1R,5S,6s)-N-[6-(6-cyclopropyl-3-pyridyl)pyridazin-3-yl]-3-(tetrahydropyran-4-ylmethyl)-3-azabicyclo[3.1.0]hexan-6-amine], the remaining activity at 30 µM was determined as 30%.
On to `Fc1cccc(CN2C[C@@H]3[C@H](C2)[C@H]3Nc2ccc(-c3cc(F)ccc3Cl)nn2)c1` [Compound 22, (1R,5S,6s)-N-[6-(2-chloro-5-fluoro-phenyl)pyridazin-3-yl]-3-[(3-fluorophenyl)methyl]-3-azabicyclo[3.1.0]hexan-6-amine], for which the remaining activity at 30 µM stood at 29%.
For `Fc1ccc(CN2C[C@@H]3[C@H](C2)[C@H]3Nc2ccc(-c3cc(F)ccc3Cl)nn2)cc1` [Compound 23, (1R,5S,6s)-N-[6-(2-chloro-5-fluoro-phenyl)pyridazin-3-yl]-3-[(4-fluorophenyl)methyl]-3-azabicyclo[3.1.0]hexan-6-amine], the remaining activity at 30 µM was determined as 30% and the IC50 was 1660 nM.
For the compound `Fc1ccc(Cl)c(-c2ccc(N[C@H]3[C@@H]4CN(Cc5ccccn5)C[C@@H]43)nn2)c1` [Compound 24, (1R,5S,6s)-N-[6-(2-chloro-5-fluoro-phenyl)pyridazin-3-yl]-3-(2-pyridylmethyl)-3-azabicyclo[3.1.0]hexan-6-amine], the remaining activity at 30 µM came to 16% and the half-inhibitory concentration (IC50) was 6770 nM.
With `Fc1ccc(Cl)c(-c2ccc(N[C@H]3[C@@H]4CN(Cc5ccc6c(c5)OCO6)C[C@@H]43)nn2)c1` [Compound 25, (1R,5S,6s)-3-(1,3-benzodioxol-5-ylmethyl)-N-[6-(2-chloro-5-fluoro-phenyl)pyridazin-3-yl]-3-azabicyclo[3.1.0]hexan-6-amine], the remaining activity at 30 µM amounted to 6% and the 50% inhibitory concentration (IC50) stood at 889 nM.
Take `Cc1cc(CN2C[C@@H]3[C@H](C2)[C@H]3Nc2ccc(-c3cc(F)ccc3Cl)nn2)nn1C` [Compound 26, (1R,5S,6s)-N-[6-(2-chloro-5-fluoro-phenyl)pyridazin-3-yl]-3-[(1,5-dimethylpyrazol-3-yl)methyl]-3-azabicyclo[3.1.0]hexan-6-amine]: the remaining activity at 30 µM amounted to 13% and the IC50 came out at 4760 nM.
As to `CC(C)(C)CCN1C[C@@H]2[C@H](C1)[C@H]2Nc1ccc(-c2cc(F)ccc2Cl)nn1` [Compound 27, (1R,5S,6s)-N-[6-(2-chloro-5-fluoro-phenyl)pyridazin-3-yl]-3-(3,3-dimethylbutyl)-3-azabicyclo[3.1.0]hexan-6-amine], the remaining activity at 30 µM came out at 4% and the IC50 was 25.5 nM.
In the case of `c1ccc(-c2ccc(N[C@H]3[C@@H]4CN(CC5CCOCC5)C[C@@H]43)nn2)cc1` [Compound 28, (1R,5S,6s)-N-(6-phenylpyridazin-3yl)-3-(tetrahydropyran-4-ylmethyl)-3-azabicyclo[3.1.0]hexan-6-amine], the remaining activity at 30 µM was 28%.
Regarding `c1ccc2cc(-c3ccc(N[C@H]4[C@@H]5CN(CC6CCOCC6)C[C@@H]54)nn3)ccc2c1` [Compound 29, (1R,5S,6s)-N-[6-(2-naphthyl)pyridazin-3-yl]-3-(tetrahydropyran-4-ylmethyl)-3-azabicyclo[3.1.0]hexan-6-amine], the remaining activity at 30 µM stood at 15%.
Consider `c1cc2c(cc1-c1ccc(N[C@H]3[C@@H]4CN(CC5CCOCC5)C[C@@H]43)nn1)OCO2` [Compound 30, (1R,5S,6s)-N-[6-(1,3-benzodioxol-5-yl)pyridazin-3-yl]-3-(tetrahydropyran-4-ylmethyl)-3-azabicyclo[3.1.0]hexan-6-amine], for which the remaining activity at 30 µM came to 16%.
For `Fc1cccc(-c2ccc(N[C@H]3[C@@H]4CN(CC5CCOCC5)C[C@@H]43)nn2)c1F` [Compound 31, (1R,5S,6s)-N-[6-(2,3-difluorophenyl)pyridazin-3-yl]-3-(tetrahydropyran-4-ylmethyl)-3-azabicyclo[3.1.0]hexan-6-amine], the remaining activity at 30 µM was 27%.
Take `Fc1ccc(-c2ccc(N[C@H]3[C@@H]4CN(CC5CCOCC5)C[C@@H]43)nn2)c(F)c1` [Compound 32, (1R,5S,6s)-N-[6-(2,4-difluorophenyl)pyridazin-3-yl]-3-(tetrahydropyran-4-ylmethyl)-3-azabicyclo[3.1.0]hexan-6-amine]: the remaining activity at 30 µM turned out to be 40%.
The same measure, in the same setting: with `Fc1ccc(F)c(-c2ccc(N[C@H]3[C@@H]4CN(Cc5ccccc5F)C[C@@H]43)nn2)c1` [Compound 33, (1R,5S,6s)-N-[6-(2,5-difluorophenyl)pyridazin-3-yl]-3-[(2-fluorophenyl)methyl]-3-azabicyclo[3.1.0]hexan-6-amine] the figure was 39%; with `Fc1ccc(F)c(-c2ccc(N[C@H]3[C@@H]4CN(Cc5ccccn5)C[C@@H]43)nn2)c1` [Compound 34, (1R,5S,6s)-N-[6-(2,5-difluorophenyl)pyridazin-3-yl]-3-(2-pyridylmethyl)-3-azabicyclo[3.1.0]hexan-6-amine], 46%.
For `Fc1ccc(F)c(-c2ccc(N[C@H]3[C@@H]4CN(Cc5ccc6c(c5)OCO6)C[C@@H]43)nn2)c1` [Compound 35, (1R,5S,6s)-3-(1,3-benzodioxol-5-ylmethyl)-N-[6-(2,5-difluorophenyl)pyridazin-3-yl]-3-azabicyclo[3.1.0]hexan-6-amine], the remaining activity at 30 µM is 36%.
Consider `Cc1cc(CN2C[C@@H]3[C@H](C2)[C@H]3Nc2ccc(-c3cc(F)ccc3F)nn2)nn1C` [Compound 36, (1R,5S,6s)-N-[6-(2,5-difluorophenyl)pyridazin-3-yl]-3-[(1,5-dimethylpyrazol-3-yl)methyl]-3-azabicyclo[3.1.0]hexan-6-amine], for which the remaining activity at 30 µM worked out at 38%.
In the case of `CC(C)(C)CCN1C[C@@H]2[C@H](C1)[C@H]2Nc1ccc(-c2cc(F)ccc2F)nn1` [Compound 37, (1R,5S,6s)-N-[6-(2,5-difluorophenyl)pyridazin-3-yl]-3-(3,3-dimethylbutyl)-3-azabicyclo[3.1.0]hexan-6-amine], the remaining activity at 30 µM worked out at 4% and the IC50 amounted to 255 nM.
For the compound `Cc1cc(CN2C[C@@H]3[C@H](C2)[C@H]3Nc2ccc(-c3ccc4nn(C)cc4c3)nn2)nn1C` [Compound 38, (1R,5S,6s)-3-[(1,5-dimethylpyrazol-3-yl)methyl]-N-[6-(2-methylindazol-5-yl)pyridazin-3-yl]-3-azabicyclo[3.1.0]hexan-6-amine], the remaining activity at 30 µM came to 40% and the IC50 is above 10000 nM.
